# Laboratory results taken from patent US12528786B2, “Plasma kallikrein inhibitors” (Merck Sharp & Dohme LLC, priority 2020, dated 2026).
# Molecular target: T1, Human plasma kallikrein (Homo sapiens, UniProt P03952)
# T1 construct: yields a heavy chain (371 amino acids) and a light chain (248 amino acids); purchased Enzyme Research Laboratories
# Assay: Kallikrein Assay (fluorogenic substrate hydrolysis, AFC release)
# Type: biochemical
# Settings: purified Human plasma kallikrein 0.5 nM; substrate Acetyl-K—P—R-AFC 100 mM; 50 mM HEPES pH 7.4
# Method in brief: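 Purified human plasma kallikrein (0.5 nM final) with Acetyl-K-P-R-AFC substrate (final ≤0.2 Km) in 50 mM HEPES pH 7.4, 150 mM NaCl, 5 mM CaCl2, 0.1% PEG 8000, after enzyme–inhibitor equilibration; room temperature or 37° C. AFC fluorescence (405 Ex/510 Em nm) under linear conditions; IC50 by four-parameter fit, Ki via Cheng-Prusoff.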
# T1 sequence (P03952 391-638 limits assumed): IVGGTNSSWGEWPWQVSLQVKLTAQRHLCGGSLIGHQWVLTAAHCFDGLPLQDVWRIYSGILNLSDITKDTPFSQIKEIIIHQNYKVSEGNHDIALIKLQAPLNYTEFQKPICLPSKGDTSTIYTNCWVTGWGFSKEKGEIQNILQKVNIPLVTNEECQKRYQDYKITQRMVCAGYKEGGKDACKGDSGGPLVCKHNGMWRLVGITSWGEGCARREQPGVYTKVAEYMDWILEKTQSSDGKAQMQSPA
# T1 sequence (P03952 20-390 partner limits assumed): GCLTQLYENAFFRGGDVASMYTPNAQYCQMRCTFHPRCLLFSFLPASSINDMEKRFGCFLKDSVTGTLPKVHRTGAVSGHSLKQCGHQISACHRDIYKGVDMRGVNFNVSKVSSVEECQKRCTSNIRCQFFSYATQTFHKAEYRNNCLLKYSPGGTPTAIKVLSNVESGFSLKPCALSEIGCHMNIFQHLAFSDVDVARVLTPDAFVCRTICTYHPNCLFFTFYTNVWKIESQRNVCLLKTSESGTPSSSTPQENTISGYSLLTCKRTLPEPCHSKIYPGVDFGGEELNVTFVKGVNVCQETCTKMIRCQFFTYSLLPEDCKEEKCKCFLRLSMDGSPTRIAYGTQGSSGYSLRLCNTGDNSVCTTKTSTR
row,Structure (SMILES),IC50 [nM]
1,"COc1c(N2C[C@H]3C[C@H]3C2=O)ncc(C(C)n2cc(C(=O)N[C@H]3C[C@@H](c4cc(Cl)ccc4C#N)C3)nn2)c1C (single isomer, unassigned) [Example 111, N-((cis)-3-(5-chloro-2-cyanophenyl)cyclobutyl)-1-((R or S)-1-(5-methoxy-4-methyl-6-((1R,5S)-2-oxo-3-azabicyclo[3.1.0]hexan-3-yl)pyridin-3-yl)ethyl)-1H-1,2,3-triazole-4-carboxamide]",0.3
2,"COc1c(N2C[C@H]3C[C@H]3C2=O)ncc(C(C)n2cc(C(=O)N[C@H]3C[C@@H](c4cc(Cl)ccc4C#N)C3)nn2)c1C (single isomer, unassigned) [Example 112, N-((cis)-3-(5-chloro-2-cyanophenyl)cyclobutyl)-1-((S or R)-1-(5-methoxy-4-methyl-6-((1R,5S)-2-oxo-3-azabicyclo[3.1.0]hexan-3-yl)pyridin-3-yl)ethyl)-1H-1,2,3-triazole-4-carboxamide]",6.7
3,"Cc1ccc(C#N)c([C@H]2C[C@@H](NC(=O)c3cn(C(C)c4cnc(N5C[C@H]6C[C@H]6C5=O)c(C)c4C)nn3)C2)c1 (single isomer, unassigned) [Example 113, N-((cis)-3-(2-cyano-5-methylphenyl)cyclobutyl)-1-((R or S)-1-(4,5-dimethyl-6-((1R,5S)-2-oxo-3-azabicyclo[3.1.0]hexan-3-yl)pyridin-3-yl)ethyl)-1H-1,2,3-triazole-4-carboxamide]",0.4
4,"Cc1ccc(C#N)c([C@H]2C[C@@H](NC(=O)c3cn(C(C)c4cnc(N5C[C@H]6C[C@H]6C5=O)c(C)c4C)nn3)C2)c1 (single isomer, unassigned) [Example 114, N-((cis)-3-(2-cyano-5-methylphenyl)cyclobutyl)-1-((S or R)-1-(4,5-dimethyl-6-((1R,5S)-2-oxo-3-azabicyclo[3.1.0]hexan-3-yl)pyridin-3-yl)ethyl)-1H-1,2,3-triazole-4-carboxamide]",6.1
5,"Cc1ccc(C#N)c([C@H]2C[C@@H](NC(=O)c3cn(C(C)c4cnc(N5C[C@H]6C[C@H]6C5=O)c(C)n4)nn3)C2)n1 (single isomer, unassigned) [Example 115, N-((cis)-3-(3-cyano-6-methylpyridin-2-yl)cyclobutyl)-1-((R or S)-1-(6-methyl-5-((1R,5S)-2-oxo-3-azabicyclo[3.1.0]hexan-3-yl)pyrazin-2-yl)ethyl)-1H-1,2,3-triazole-4-carboxamide]",22.4
6,"Cc1ccc(C#N)c([C@H]2C[C@@H](NC(=O)c3cn(C(C)c4cnc(N5C[C@H]6C[C@H]6C5=O)c(C)n4)nn3)C2)n1 (single isomer, unassigned) [Example 116, N-((cis)-3-(3-cyano-6-methylpyridin-2-yl)cyclobutyl)-1-((S or R)-1-(6-methyl-5-((1R,5S)-2-oxo-3-azabicyclo[3.1.0]hexan-3-yl)pyrazin-2-yl)ethyl)-1H-1,2,3-triazole-4-carboxamide]",6.9
7,"Cc1cc(N2C[C@H]3C[C@H]3C2=O)nnc1C(C)n1cc(C(=O)N[C@H]2C[C@@H](c3cc(Cl)ccc3C#N)C2)nn1 (single isomer, unassigned) [Example 117, N-((cis)-3-(5-chloro-2-cyanophenyl)cyclobutyl)-1-((R or S)-1-(4-methyl-6-((1R,5S)-2-oxo-3-azabicyclo[3.1.0]hexan-3-yl)pyridazin-3-yl)ethyl)-1H-1,2,3-triazole-4-carboxamide]",968
8,"Cc1cc(N2C[C@H]3C[C@H]3C2=O)nnc1C(C)n1cc(C(=O)N[C@H]2C[C@@H](c3cc(Cl)ccc3C#N)C2)nn1 (single isomer, unassigned) [Example 118, N-((cis)-3-(5-chloro-2-cyanophenyl)cyclobutyl)-1-((S or R)-1-(4-methyl-6-((1R,5S)-2-oxo-3-azabicyclo[3.1.0]hexan-3-yl)pyridazin-3-yl)ethyl)-1H-1,2,3-triazole-4-carboxamide]",4.7
9,"Cc1ccc(C#N)c([C@H]2C[C@@H](NC(=O)c3cn(C(C)c4cnc(N5C[C@H]6C[C@H]6C5=O)c(F)c4C)nn3)C2)c1 (single isomer, unassigned) [Example 119, N-((cis)-3-(2-cyano-5-methylphenyl)cyclobutyl)-1-((R or S)-1-(5-fluoro-4-methyl-6-((1R,5S)-2-oxo-3-azabicyclo[3.1.0]hexan-3-yl)pyridin-3-yl)ethyl)-1H-1,2,3-triazole-4-carboxamide]",26
10,"Cc1ccc(C#N)c([C@H]2C[C@@H](NC(=O)c3cn(C(C)c4cnc(N5C[C@H]6C[C@H]6C5=O)c(F)c4C)nn3)C2)c1 (single isomer, unassigned) [Example 120, N-((cis)-3-(2-cyano-5-methylphenyl)cyclobutyl)-1-((S or R)-1-(5-fluoro-4-methyl-6-((1R,5S)-2-oxo-3-azabicyclo[3.1.0]hexan-3-yl)pyridin-3-yl)ethyl)-1H-1,2,3-triazole-4-carboxamide]",0.6
11,"COc1nc(C(C)n2cc(C(=O)N[C@H]3C[C@@H](c4cc(Cl)ccc4C#N)C3)nn2)cnc1N1C[C@H]2C[C@H]2C1=O (single isomer, unassigned) [Example 121, N-((cis)-3-(5-chloro-2-cyanophenyl)cyclobutyl)-1-((R or S)-1-(6-methoxy-5-((1R,5S)-2-oxo-3-azabicyclo[3.1.0]hexan-3-yl)pyrazin-2-yl)ethyl)-1H-1,2,3-triazole-4-carboxamide]",6.7
12,"COc1nc(C(C)n2cc(C(=O)N[C@H]3C[C@@H](c4cc(Cl)ccc4C#N)C3)nn2)cnc1N1C[C@H]2C[C@H]2C1=O (single isomer, unassigned) [Example 122, N-((cis)-3-(5-chloro-2-cyanophenyl)cyclobutyl)-1-((S or R)-1-(6-methoxy-5-((1R,5S)-2-oxo-3-azabicyclo[3.1.0]hexan-3-yl)pyrazin-2-yl)ethyl)-1H-1,2,3-triazole-4-carboxamide]",3
13,"Cc1c(C(C)n2cc(C(=O)NC3CC(c4cccc(Cl)c4)C3O)nn2)cnc(N2C[C@H]3C[C@H]3C2=O)c1F (single isomer, unassigned) [Example 123, N-((1R,2R,3R or 1S,2S,3S)-3-(3-chlorophenyl)-2-hydroxycyclobutyl)-1-((R or S)-1-(5-fluoro-4-methyl-6-((1R,5S)-2-oxo-3-azabicyclo[3.1.0]hexan-3-yl)pyridin-3-yl)ethyl)-1H-1,2,3-triazole-4-carboxamide]",41.3
14,"Cc1c(C(C)n2cc(C(=O)NC3CC(c4cccc(Cl)c4)C3O)nn2)cnc(N2C[C@H]3C[C@H]3C2=O)c1F (single isomer, unassigned) [Example 124, N-((1S,2S,3S or 1R,2R,3R)-3-(3-chlorophenyl)-2-hydroxycyclobutyl)-1-((R or S)-1-(5-fluoro-4-methyl-6-((1R,5S)-2-oxo-3-azabicyclo[3.1.0]hexan-3-yl)pyridin-3-yl)ethyl)-1H-1,2,3-triazole-4-carboxamide]",4.5
15,"Cc1c(C(C)n2cc(C(=O)NC3CC(c4cccc(Cl)c4)C3O)nn2)cnc(N2C[C@H]3C[C@H]3C2=O)c1F (single isomer, unassigned) [Example 125, N-((1R,2R,3R or 1S,2S,3S)-3-(3-chlorophenyl)-2-hydroxycyclobutyl)-1-((S or R)-1-(5-fluoro-4-methyl-6-((1R,5S)-2-oxo-3-azabicyclo[3.1.0]hexan-3-yl)pyridin-3-yl)ethyl)-1H-1,2,3-triazole-4-carboxamide]",130
16,"Cc1c(C(C)n2cc(C(=O)NC3CC(c4cccc(Cl)c4)C3O)nn2)cnc(N2C[C@H]3C[C@H]3C2=O)c1F (single isomer, unassigned) [Example 126, N-((1S,2S,3S or 1R,2R,3R)-3-(3-chlorophenyl)-2-hydroxycyclobutyl)-1-((S or R)-1-(5-fluoro-4-methyl-6-((1R,5S)-2-oxo-3-azabicyclo[3.1.0]hexan-3-yl)pyridin-3-yl)ethyl)-1H-1,2,3-triazole-4-carboxamide]",414
17,"Cc1ccc(C#N)c([C@H]2C[C@@H](NC(=O)c3cn(C(C)c4nnc(N5C[C@H]6C[C@H]6C5=O)c(C)c4C)nn3)C2)n1 (single isomer, unassigned) [Example 127, N-((cis)-3-(3-cyano-6-methylpyridin-2-yl)cyclobutyl)-1-((R or S)-1-(4,5-dimethyl-6-((1R,5S)-2-oxo-3-azabicyclo[3.1.0]hexan-3-yl)pyridazin-3-yl)ethyl)-1H-1,2,3-triazole-4-carboxamide]",702
18,"Cc1ccc(C#N)c([C@H]2C[C@@H](NC(=O)c3cn(C(C)c4nnc(N5C[C@H]6C[C@H]6C5=O)c(C)c4C)nn3)C2)n1 (single isomer, unassigned) [Example 128, N-((cis)-3-(3-cyano-6-methylpyridin-2-yl)cyclobutyl)-1-((S or R)-1-(4,5-dimethyl-6-((1R,5S)-2-oxo-3-azabicyclo[3.1.0]hexan-3-yl)pyridazin-3-yl)ethyl)-1H-1,2,3-triazole-4-carboxamide]",2.3
19,"Cc1c(C(C)n2cc(C(=O)NC3CC(c4cccc(Cl)c4)C3O)nn2)nnc(N2C[C@H]3C[C@H]3C2=O)c1C (single isomer, unassigned) [Example 129, N-((1R,2R,3R or 1S,2S,3S))-3-(3-chlorophenyl)-2-hydroxycyclobutyl)-1-((R or S)-1-(4,5-dimethyl-6-((1R,5S)-2-oxo-3-azabicyclo[3.1.0]hexan-3-yl)pyridazin-3-yl)ethyl)-1H-1,2,3-triazole-4-carboxamide]",839
20,"Cc1c(C(C)n2cc(C(=O)NC3CC(c4cccc(Cl)c4)C3O)nn2)nnc(N2C[C@H]3C[C@H]3C2=O)c1C (single isomer, unassigned) [Example 130, N-((1S,2S,3S or 1R,2R,3R))-3-(3-chlorophenyl)-2-hydroxycyclobutyl)-1-((R or S)-1-(4,5-dimethyl-6-((1R,5S)-2-oxo-3-azabicyclo[3.1.0]hexan-3-yl)pyridazin-3-yl)ethyl)-1H-1,2,3-triazole-4-carboxamide]",8.5
